# Data from patent US8946201B2, “Methods for inhibiting TGF-β” (Saint Louis University, priority 2007, dated 2015).
# Experiments:
# TβR-I and TβR-II = experiment: 125I-TGF-β1 affinity labeling, Mv1Lu cells; assay type: cell-based, mink; conditions: for effect on the LDL- or cholesterol-induced increase of 125I-TGF-β1 binding to TβR-I: co-treatment, β-CD 8 mM, nystatin 25 μg/ml, cholest-4-en-3-one 50 μg/ml (FIG. 4B, C)
# Description: (A) Mv1Lu cells were treated with 50 μg/ml cholesterol at 37° C. After several time periods, as indicated, ^125I-TGF-β1-affinity labeling was performed at 0° C. ^125I-TGF-β1 affinity-labeled TGF-β receptors were analyzed by 7.5% SDS-PAGE and autoradiography (a) and quantified with a PhosphoImager. The bracket indicates the locations of ^125I-TGF-β1 affinity-labeled TβR-I and TβR-II. The ratio of ^125I-TGF-β1 binding to TβR-II and TβR-I is plotted against incubation time (b).
# (B, C, D, E) Cells were treated with increasing concentrations of cholesterol in the presence (C) and absence (B, D, E) of 0.2% β-CD, as indicated. After 1 hr at 37° C., ^125I-TGF-β1 affinity labeling of TβR-I and TβR-II in cells was performed at 0° C. ^125I-TGF-β1 affinity-labeled TβR-I and TβR-II were analyzed by 7.5% SDS-PAGE and autoradiography or quantified with a PhosphoImager. A representative of a total of three analyses is shown (top). The bracket indicates the locations of ^125I-TGF-β affinity-labeled TβR-I and TβR-II. The relative intensities of ^125I-TGF-β1 affinity-labeled TβR-I and TβR-II in cells treated without cholesterol were taken as 100%. The quantitative data from three analyses is shown (bottom).
# The bracket indicates the locations of ^125I-TGF-β1 affinity-labeled TβR-I and TβR-II. The relative intensities of ^125I-TGF-β1-TβR-I and ^125I-TGF-β1-TβR-II complexes, which were quantified with a PhosphoImager, are plotted against TGF-β1 concentrations (bottom).
# (A, B, C, D, E, F) Cells were treated with LDL (50 μg protein/ml), VLDL (5 μg protein/ml), HDL (50 μg protein/ml), lipoprotein (a) (10 μg/ml), fluvastatin (F; 1 μM), lovastatin (L; 1 μM), nystatin (Nys; 25 μg/ml), β-CD (β-CD; 8 mM), cholest-4-en-3-one (3-one; 50 μg/ml) or cholesterol (Chol; 50 μg/ml) alone or combination of two. After 1 hr at 37° C. or 16 hr at 37° C. (for fluvastatin and lovastatin), ^125I-TGF-β1 affinity labeling of cell-surface TGF-β receptors was performed at 0° C. ^125I-TGF-β1 affinity-labeled TβR-I and TβR-II were analyzed by 7.5% SDS-PAGE and autoradiography. The relative intensities of TβR-I and TβR-II were quantified with a PhosphoImager. The ratio of ^125I-TGF-β1 binding to TβR-II and TβR-I were estimated. The numbers above the lane sequence denote the ratio of TβR-II/TβR-I.
# (G) Mv1Lu cells were treated with 50 μg/ml of cholesterol and cholesterol analogs/derivatives including 25-hydroxycholesterol, 7-dehydrocholesterol (7-DHC), 7-ketocholesterol, 7β, 8β-epoxycholesterol, 7β-hydroxycholesterol, and oxidized 7-dehydrocholesterol (oxy-7DHC). After 1 hr at 37° C., ^125I-TGF-β1 affinity labeling of TGF-β receptors was performed. ^125I-TGF-β1 affinity-labeled TβR-I and TβR-II were analyzed by 7.5% SDS-PAGE and autoradiography. The bracket indicates the locations of ^125I-TGF-β1-affinity-labeled TβR-I and TβR-II. The relative intensities of ^125I-TGF-β1 affinity-labeled TβR-I and TβR-II were determined by a PhosphoImager. The ratios of ^125I-TGF-β1 binding to TβR-II and TβR-I were estimated. The numbers above the lane sequence denote the ratio of TβR-II/TβR-I.
# After cross-linking, cell lysates were analyzed by 7.5% SDS-PAGE and autoradiography or quantified by a PhosphoImager. For all experiments, cholesterol or cholesterol derivatives were prepared as the stock solution with a concentration of 25 mg/ml in ethanol. The final concentration of ethanol in the medium was 0.2% (by vol.).
# TβR-II = experiment: TGF-β1-induced degradation of TβR-II, Western blot; assay type: cell-based; conditions: 1% β-CD
# Description: (E) Cells were treated with several concentrations of cholesterol (a,b) or LDL (c,d) as indicated in the presence and absence of 1% β-CD at 37° C. for 1 hr and further incubated with 50 pM TGF-β for 1 hr. The cell lysates were then subjected to 7.5% SDS-PAGE and Western blot analysis using antibodies to TβR-II and α-actin (a,c). The relative intensities of TβR-II and α-actin on the blot were quantified by densitometry (b,d). The ratio of the relative intensities of TβR-II and α-actin in cells treated without TGF-β1 was taken as the 100% level of TβR-II.
# (F, G) Cells were treated with or without 1 μM lovastatin/fluvastatin or nystatin (25 μg/ml)/cholesterol (50 μg/ml) at 37° C. for 16 hr or 1 hr, respectively. The treated cells were directly analyzed by sucrose density gradient ultracentrifugation analysis (F) or further incubated with 50 pM TGF-β at 37° C. for several time periods as indicated (G). Western blot analysis of the sucrose density gradient fractions (F) and of TGF-β1-treated cell lysates (G) was performed using antibody to TβR-II. The relative levels of TβR-II and α-actin were quantified by densitometry. Fractions ⅘ and 7 represent lipid raft/caveolae and non-lipid raft fractions, respectively. […] The quantitative data from three independent analyses is shown (G, bottom). […]
# Cells grown to near confluence on 12-well cluster dishes were treated with cholesterol or LDL in serum-free DMEM (vol.=0.5 ml/well) at 37° C. for 1 hr. […] Treated cells were lysed and cell lysates were analyzed by 7.5% SDS-PAGE and Western blot analysis using anti-Smad2, anti-P-Smad2, anti-caveolin-1, anti-TβR-I (alk5) or anti-TβR-II antibodies as described previously (30). […]
# Lipid raft/caveolae-mediated endocytosis of receptor-bound TGF-β results in rapid degradation of TGF-β1 and suppression of TGF-β responsiveness. […] To test this, we analyzed the lipid raft/caveolae and non-lipid raft localization of TβR-I and TβR-II in the plasma membrane of cells treated with or without cholesterol (50 μg/ml) using sucrose density gradient ultracentrifugation analysis. […]
# Mv1Lu cells = experiment: [Methyl-3H]thymidine incorporation (DNA synthesis), Mv1Lu cells; assay type: cell-based, mink; conditions: 18 hr
# Description: (A, B, C, D, E, F) Cells were treated with 50 μg/ml cholesterol (A, B, C, D) and 50 μg/ml LDL (D) at 37° C. for 1 hr or with 1 μM fluvastatin or lovastatin (E) or several concentrations of fluvastatin (F) at 37° C. for 16 hr and then further incubated with increasing concentrations (as indicated) of TGF-β1 (A, B, C, E) or 50 pM TGF-β1 (D,F) for 2 hr. Northern blot analysis of PAI-1 and G3PDH was performed. A representative of a total of three analyses is shown (a). The relative intensities of the transcripts were quantified with a PhosphoImager. The ratio of the relative intensities of PAI-1 and G3PDH transcripts in cells treated without TGF-β1 and cholesterol, LDL or statins on the blot was taken as 1 fold or 100% of PAI-1 expression. The quantitative data from three independent analyses is shown (b). […] (G) Mv1Lu cells stably expressing a luciferase reporter gene driven by the PAI-1 promoter (MLECs-clone 32) were treated with increasing concentrations (as indicated) of cholesterol at 37 EC for 1 hr (a) or with 1 μM lovastatin at 37° C. for 16 hr (b) and then further incubated with 50 pM TGF-β for 7 hr. The luciferase activity in cells treated without cholesterol was taken as 100% (a). […] (H) Cells were incubated with 0.0625 and 0.125 pM TGF-β1 in the presence of increasing concentrations of cholesterol, as indicated. After 18 hr at 37° C., cell growth was determined by measurement of [^3H-methyl]thymidine incorporation into cellular DNA (a). The [^3H-methyl]thymidine incorporation in cells treated with vehicle only (T1); with TGF-β1 (T2); with cholesterol (T3); with cholesterol and TGF-β1 (T4) was measured. T1 was taken as 100%. The degree (%) of cholesterol-mediated reversal of TGF-β1 growth inhibition was estimated by the equation: % reversal=[1−(T3−T4/T1−T2)]×100 Cholesterol appeared to reverse TGF-β1 growth inhibition in a dose-dependent manner (b). The experiments were carried out in triplicate.
# The growth of cholesterol-treated cells was determined by measurement of [methyl-^3H]thymidine incorporation into cellular DNA as described (30). Briefly, cells grown near confluence on 48-well clustered dishes were treated with several concentrations of cholesterol at 37° C. for 1 hr in serum-free DMEM. The final concentration of ethanol (the vehicle for cholesterol) in the medium was 0.2%. […] The [methyl-^3H]thymidine incorporation into cellular DNA was then determined by incubation of cells with [methyl-^3H]thymidine at 37° C. for 2 hr in DMEM containing 0.1% fetal calf serum. […]
# Another prominent biological activity of TGF-β is growth inhibition of many different cell types. […] DNA synthesis was then determined by measurement of [^3H-methyl]thymidine incorporation into cellular DNA (FIG. 2Ha). […]
compound,measurement,setting,value
"CC(C)CCC[C@@H](C)[C@H]1CC[C@H]2[C@@H]3CCC4=CC(=O)CC[C@]4(C)[C@H]3CC[C@]12C [4-cholesten-3-one, reference compound]",effect on the LDL- or cholesterol-induced increase of 125I-TGF-β1 binding to TβR-I,TβR-I and TβR-II,abolished
"OC[C@H]1O[C@@H]2O[C@H]3[C@H](O)[C@@H](O)[C@@H](O[C@H]4[C@H](O)[C@@H](O)[C@@H](O[C@H]5[C@H](O)[C@@H](O)[C@@H](O[C@H]6[C@H](O)[C@@H](O)[C@@H](O[C@H]7[C@H](O)[C@@H](O)[C@@H](O[C@H]8[C@H](O)[C@@H](O)[C@@H](O[C@H]1[C@H](O)[C@H]2O)O[C@@H]8CO)O[C@@H]7CO)O[C@@H]6CO)O[C@@H]5CO)O[C@@H]4CO)O[C@@H]3CO [β-CD, β-cyclodextrin, reference compound]",effect on the cholesterol-enhanced TGF-β1-induced degradation of TβR-II,TβR-II,abolished
same,effect on the LDL- or cholesterol-induced increase of 125I-TGF-β1 binding to TβR-I,TβR-I and TβR-II,abolished
"TGF-β1: transforming growth factor-beta 1, 25-kDa dimeric cytokine; also used 125I-labelled",inhibition of DNA synthesis,Mv1Lu cells; 0.0625 pM,~30%
same,inhibition of DNA synthesis,Mv1Lu cells; 0.125 pM,~40%
same,half-maximum concentrations of binding to TβR-I and TβR-II,"TβR-I and TβR-II; Mv1Lu cells treated with and without cholesterol, 0° C. 2.5 hr",50 to 80 pM
same,Kd,"TβR-I and TβR-II; stated identical to the half-maximum concentration, read-out: apparent Kd of binding to the TGF-β receptors",50 to 80 pM
